“And” between values parts separate entries of the source, which are not always exact repeats. Equal values may be shown once. Marks after values point to notes of the source that are not given here.
Columns and labels:
[1] = system: Nitric Oxide Synthase (NOS) system; experiment: Cure efficiency (NO-heme, total heme, nitrosylation) of cooked pre-rigor pork semimembranosus muscle (first study); format: biochemical; settings: for NO-Heme / Total Heme: ppm acid hematin
Protocol: Cooked meat samples were subjected to analysis to determine the degree of nitrosylation of residual nitrite, the procedure set forth by Pearson and Tauber (Pearson and Tauber, 1984) from Hornsey's procedure for analyzing small samples was used to analyze sample supernatant and pellet. 2 mL or 2 g of the samples were treated with acetone to measure NO-heme concentration and separately 2 mL or 2 g of the samples were treated with acetone and hydrochloric acid to measure total heme concentration in a 1 cm quartz cuvette. NO-heme concentration (ppm acid hematin) was determined using a spectrophotometer (2100 Series Spectrophotometer, Unico, Dayton, N.J.) by reading samples at 540 nm. Total heme concentration (ppm acid hematin) was determined at 640 nm determined nitrosylation, which indicated how well varying concentrations of L-arginine affected the NOS system's ability to cure, known as cure efficiency. This procedure measured how much myoglobin was converted to nitroso-hemochromagen, the cured meat color, and the level of conversion compared to all pigmentation within the sample.
Curing efficiency or nitrosylation is calculated as the percentage conversion of NO-heme to total heme. Cure efficiency is the percentage of total pigment converted to nitroso pigment and indicated the degree of cured color fading. Cured meat pigment is extracted in a solution of 80% acetone and 20% water that extracts cured pigment heme. Total heme pigments are extracted using an acidified acetone solution that extracts heme from all heme proteins as first used by Hornsey. NO-heme concentration (as ppm acid hematin)=sample A540×290 determines the specific cure color pink from the rest of the heme pigmentation of the sample. Total heme concentration (ppm acid hematin)=sample A640×680 determines the total heme pigmentation of the sample. Cure efficiency (%)=(ppm of nitrosoheme […]ppm of total pigment)×100 and indicates how much of the product is cured and holds the cured pink stability once cooked.
Procedures • 1. Do all procedures in subdued light to reduce fading of pigment. • 2. Weigh out 2.0 g minced lean meat sample in a 50-mL polypropylene centrifuge tube. • 3. Pipette 9.0 mL acetone-a into 50-mL tube, to obtain acetone concentration of 80%. • 4. Mix thoroughly with a probe-type homogenizer or a glass rod. • 5. Cap the tube to minimize evaporation of acetone, and mix by gentle swirling. • 6. Let stand 10 minutes in the dark, then filter through medium-fast filter paper into a glass test tube. • 7. Transfer filtrate into a 1-cm quartz cuvette and read absorbance at 540 nm. (Avoid use of disposable plastic cuvettes. They become opaque upon exposure to acetone). Calculate nitroso pigment concentration as previously described. • 8. Prepare another 2.0-g sample, using acetone-b. • 9. Macerate and hold 1 hour in the dark before filtering. • 10. Filter the extract as before, and read absorbance at 640 nm. Calculate total pigment and cure efficiency as previously described.

[2] = system: Nitric Oxide Synthase (NOS) system; experiment: Residual nitrite in pre-rigor and post-rigor pork semimembranosus muscle immersed in L-arginine (Example 13); format: biochemical
Protocol: Pre-rigor pork semimembranosus muscle samples were collected from four pre-rigor pork carcasses (n=4) harvested at the Rosenthal Meat Science and Technology Center at Texas A&M University at three separate times over a three day period (N=12). Post-rigor pork semimembranosus muscle samples were collected from the same carcasses eighteen hours after harvesting to ensure the full onset and completion of rigor (N=12). Muscle samples were treated with the same five concentrations of L-arginine and water as the control treatment. Samples were either heated (water bath increasing from room temperature ([…]) to 62° C. for 60 min) or left raw/fresh (uncooked). The overall experiment was designed as a 6 (5 L-arginine concentrations and a control) by 4 (pork carcasses) by 2 (heating treatment (raw and cooked)) factorial replicated 3 times (collection) (N=144) for both pre-rigor and post-rigor muscle types.
Solutions were prepared by Wu's specifications to stabilize the muscle samples for enclosed reactions within 50 mL conical tubes. […] The NaCl was used to suspend and stabilize any reaction and the NaE was used to accelerate the cure reaction. The L-arginine (L-arginine monohydrochloride, Ajinomoto Inc., Raleigh, N.C.) concentrations were prepared separately for administration as a treatment once the five grams of meat were added to the reaction tubes at dilutions of 0 mM, 2 mM, 4 mM, 8 mM 16 mM, and 32 mM.
Residual nitrite was determine using the modified AOAC Official Method 973.31 (Nitrite Analysis in Cured Meats Procedure) and was verified by Wu with sample (plasma or serum) preparation for amino acid analysis by HPLC and determination of nitrite (UV/VIS Spectrophotometric Method). This method was used to best determine any residual nitrite found in samples to compensate for both pre-rigor and post rigor effects on detecting residual nitrite. All samples were tested one week later after being held in a −30° C. freezer then thawed in a 0° C. cooler.

[3] = 2 mM L-arginine, cooked supernatant
[4] = 4 mM L-arginine, cooked supernatant
[5] = 8 mM L-arginine, cooked supernatant
[6] = 16 mM L-arginine, cooked pellet
[7] = 16 mM L-arginine, cooked supernatant
[8] = 32 mM L-arginine, cooked pellet
[9] = 32 mM L-arginine, cooked supernatant
[10] = 2 mM L-arginine, raw supernatant, stored one week at -30° C.
[11] = 4 mM L-arginine, raw supernatant, stored one week at -30° C.
[12] = 8 mM L-arginine, raw supernatant, stored one week at -30° C.
[13] = 16 mM L-arginine, raw supernatant, stored one week at -30° C.
[14] = 32 mM L-arginine, raw supernatant, stored one week at -30° C.

For `N=C(N)NCCC[C@H](N)C(=O)O` [L-arginine], the “Nitrosylation (Cure Efficiency)” value ([1]; 2 mM L-arginine, cooked pellet) was 46.51% and 46.51^ab %, the NO-Heme ([1]; 2 mM L-arginine, cooked pellet) was 8.70^a ppm and the “Total Heme” value ([1]; 2 mM L-arginine, cooked pellet) was 64.77 ppm and 64.77^a ppm. The “Nitrosylation (Cure Efficiency)” value [1, 3] was 125.52^a %, the NO-Heme [1, 3] was 43.94^a ppm and the “Total Heme” value [1, 3] was 24.22 ppm and 24.22^ab ppm. For the same compound, the “Nitrosylation (Cure Efficiency)” value ([1]; 4 mM L-arginine, cooked pellet) was 74.27% and 74.27^ab %, the NO-Heme ([1]; 4 mM L-arginine, cooked pellet) was 7.77^a ppm and the “Total Heme” value ([1]; 4 mM L-arginine, cooked pellet) was 35.87^ab ppm. For the same compound, the “Nitrosylation (Cure Efficiency)” value [1, 4] was 155.68^a %, the NO-Heme [1, 4] was 21.09^a ppm and the “Total Heme” value [1, 4] was 34.17 ppm and 34.17^ab ppm. For the same compound, the “Nitrosylation (Cure Efficiency)” value ([1]; 8 mM L-arginine, cooked pellet) was 70.13% and 70.13^ab %, the NO-Heme ([1]; 8 mM L-arginine, cooked pellet) was 9.33^a ppm and the “Total Heme” value ([1]; 8 mM L-arginine, cooked pellet) was 33.44^ab ppm. The “Nitrosylation (Cure Efficiency)” value [1, 5] was 108.99^a %, the NO-Heme [1, 5] was 16.44^a ppm and the “Total Heme” value [1, 5] was 70.38 ppm and 70.38^a ppm. For the same compound, the “Nitrosylation (Cure Efficiency)” value [1, 6] was 97.82% and 97.82^ab %, the NO-Heme [1, 6] was 11.69^a ppm and the “Total Heme” value [1, 6] was 36.04^ab ppm. For the same compound, the “Nitrosylation (Cure Efficiency)” value [1, 7] was 110.11^a %, the NO-Heme [1, 7] was 16.73^a ppm and the “Total Heme” value [1, 7] was 20.14 ppm and 20.14^ab ppm. The “Nitrosylation (Cure Efficiency)” value [1, 8] was 156.72% and 156.72^a %, the NO-Heme [1, 8] was 13.05^a ppm and the “Total Heme” value [1, 8] was 54.40^ab ppm. The “Nitrosylation (Cure Efficiency)” value [1, 9] was 50.48^a %, the NO-Heme [1, 9] was 16.86^a ppm and the “Total Heme” value [1, 9] was 31.67 ppm and 31.67^ab ppm. The cure efficiency ([1]; cooked supernatant, at all L-arginine concentrations) was “over 100%”, the “Residual Post rigor Nitrite” value ([2]; 2 mM L-arginine, cooked pellet) was 19.36^b ppm and the “Residual Pre-rigor Nitrite” value ([2]; 2 mM L-arginine, cooked pellet) was 22.87^a ppm. For the same compound, the “Residual Post rigor Nitrite” value [2, 3] was 61.12 ppm and 61.12^a ppm, the “Residual Pre-rigor Nitrite” value [2, 3] was 50.72 ppm and 50.72^a ppm and the “Residual Post rigor Nitrite” value [2, 10] was 9.42^a ppm. For the same compound, the “Residual Pre-rigor Nitrite” value [2, 10] was 15.26^a ppm, the “Residual Post rigor Nitrite” value ([2]; 4 mM L-arginine, cooked pellet) was 23.72 ppm and 23.72^ab ppm and the “Residual Pre-rigor Nitrite” value ([2]; 4 mM L-arginine, cooked pellet) was 22.64^a ppm. For the same compound, the “Residual Post rigor Nitrite” value [2, 4] was 61.93 ppm and 61.93^a ppm, the “Residual Pre-rigor Nitrite” value [2, 4] was 47.72 ppm and 47.72^ab ppm and the “Residual Post rigor Nitrite” value [2, 11] was 14.50^a ppm. The “Residual Pre-rigor Nitrite” value [2, 11] was 34.93^a ppm, the “Residual Post rigor Nitrite” value ([2]; 8 mM L-arginine, cooked pellet) was 22.06 ppm and 22.06^ab ppm and the “Residual Pre-rigor Nitrite” value ([2]; 8 mM L-arginine, cooked pellet) was 19.70^a ppm. The “Residual Post rigor Nitrite” value [2, 5] was 52.69 ppm and 52.69^ab ppm, the “Residual Pre-rigor Nitrite” value [2, 5] was 38.63 ppm and 38.63^ab ppm and the “Residual Post rigor Nitrite” value [2, 12] was 21.83^a ppm. The “Residual Pre-rigor Nitrite” value [2, 12] was 44.58^a ppm, the “Residual Post rigor Nitrite” value [2, 6] was 22.15 ppm and 22.15^ab ppm and the “Residual Pre-rigor Nitrite” value [2, 6] was 31.94^a ppm. For the same compound, the “Residual Post rigor Nitrite” value [2, 7] was 53.74 ppm and 53.74^a ppm, the “Residual Pre-rigor Nitrite” value [2, 7] was 24.62 ppm and 24.62^ab ppm and the “Residual Post rigor Nitrite” value [2, 13] was 23.54^a ppm. The “Residual Pre-rigor Nitrite” value [2, 13] was 11.92^a ppm, the “Residual Post rigor Nitrite” value [2, 8] was 32.87 ppm and 32.87^a ppm and the “Residual Pre-rigor Nitrite” value [2, 8] was 40.14 ppm and 40.14^a ppm. For the same compound, the “Residual Post rigor Nitrite” value [2, 9] was 52.90 ppm and 52.90^ab ppm, the “Residual Pre-rigor Nitrite” value [2, 9] was 20.08 ppm and 20.08^ab ppm and the “Residual Post rigor Nitrite” value [2, 14] was 16.51^a ppm. The “Residual Pre-rigor Nitrite” value [2, 14] was 22.09^a ppm, the Residual Nitrite ([2]; pre-rigor raw supernatant, range over all concentrations of L-arginine) was 11.92-44.58 ppm and the residual nitrite levels ([2]; raw post rigor supernatant, range over all concentrations of L-arginine) was 9.06-23.54 ppm.

Source: patent US20230029496A1, “AMINO ACID ALTERNATIVE CURING SYSTEM” (THE TEXAS A&M UNIVERSITY SYSTEM, priority 2019, published 2023)
